Experimental data as given in ChEMBL document CHEMBL1201862, “PubChem BioAssay data set” (2004).
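Compound exposure: 48 hours, 5 concentrations, 96-well plates. GI50: concentration for 50% inhibition of growth.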 Calls of active or inactive are those of the source. Cut-off read from the data, not from the text of the source: active = GI50 up to about 1.1 µM and inactive = higher.

Legend:
Assay in all cases: growth of human tumour cells (NCI), 48 h
[1] = tested on: MDA-N
[2] = tested on: TK-10
[3] = tested on: OVCAR-8
[4] = tested on: SF-539
[5] = tested on: NCI-H226
[6] = tested on: A498
[7] = tested on: SNB-19
[8] = tested on: SF-268
[9] = tested on: HCT-116
[10] = tested on: DU-145
[11] = tested on: MDA-MB-435
[12] = tested on: IGROV-1
[13] = tested on: LOX IMVI
[14] = tested on: SK-MEL-28
[15] = tested on: MCF7
[16] = tested on: HT-29
[17] = tested on: HOP-62
[18] = tested on: Hs-578T
[19] = tested on: SK-MEL-2
[20] = tested on: RPMI-8226

Compound	GI50 [1]	GI50 [2]	GI50 [3]	GI50 [4]	GI50 [5]	GI50 [6]	GI50 [7]	GI50 [8]	GI50 [9]	GI50 [10]	GI50 [11]	GI50 [12]	GI50 [13]	GI50 [14]	GI50 [15]	GI50 [16]	GI50 [17]	GI50 [18]	GI50 [19]	GI50 [20]
COC(=O)C1CCC(=O)N1C(c1ccccc1)c1cc(OC)c(OC)c(OC)c1 (stereo not drawn)	21.8 µM (inactive)	> 100 µM (inactive)	> 100 µM (inactive)	69.5 µM (inactive)	> 100 µM (inactive)	82.4 µM (inactive)	76.4 µM (inactive)	> 100 µM (inactive)	50 µM (inactive)	> 100 µM (inactive)	22.3 µM (inactive)	63.5 µM (inactive)	56.2 µM (inactive)	99.8 µM (inactive)	67.9 µM (inactive)	29.4 µM (inactive)	> 100 µM (inactive)	–	–	–
O=C(c1cccs1)c1nccc2c1cnc1ccccc12	–	> 100 µM (inactive)	31.4 µM (inactive)	> 100 µM (inactive)	> 100 µM (inactive)	63.8 µM (inactive)	> 100 µM (inactive)	26.2 µM (inactive)	90.8 µM (inactive)	> 100 µM (inactive)	> 100 µM (inactive)	–	> 100 µM (inactive)	> 100 µM (inactive)	20.3 µM (inactive)	> 100 µM (inactive)	28.7 µM (inactive)	94.6 µM (inactive)	> 100 µM (inactive)	> 100 µM (inactive)
c1ccc2nn(C3CCCCO3)nc2c1 (stereo not drawn)	> 100 µM (inactive)	> 100 µM (inactive)	> 100 µM (inactive)	> 100 µM (inactive)	> 100 µM (inactive)	–	> 100 µM (inactive)	> 100 µM (inactive)	> 100 µM (inactive)	> 100 µM (inactive)	> 100 µM (inactive)	> 100 µM (inactive)	–	–	> 100 µM (inactive)	> 100 µM (inactive)	> 100 µM (inactive)	> 100 µM (inactive)	> 100 µM (inactive)	–
O=[N+]([O-])c1ccc(C2Nn3c(nnc3-c3cccc([N+](=O)[O-])c3)S2)cc1 (stereo not drawn)	–	> 100 µM (inactive)	92.3 µM (inactive)	9.08 µM (inactive)	0.0735 µM (active)	> 100 µM (inactive)	> 100 µM (inactive)	> 100 µM (inactive)	67.6 µM (inactive)	> 100 µM (inactive)	51.5 µM (inactive)	> 100 µM (inactive)	82 µM (inactive)	–	44.3 µM (inactive)	> 100 µM (inactive)	> 100 µM (inactive)	> 100 µM (inactive)	66.7 µM (inactive)	42.7 µM (inactive)
Cc1[nH]c2ccccc2c1C1=CC(=O)N(c2ccccc2)C1=O	–	11.1 µM (inactive)	14.8 µM (inactive)	10.8 µM (inactive)	19 µM (inactive)	9.71 µM (inactive)	22.1 µM (inactive)	15.8 µM (inactive)	8.75 µM (inactive)	4.74 µM (inactive)	15.6 µM (inactive)	32.1 µM (inactive)	5.55 µM (inactive)	6.46 µM (inactive)	5.28 µM (inactive)	5.58 µM (inactive)	7.98 µM (inactive)	8.22 µM (inactive)	13.6 µM (inactive)	11.3 µM (inactive)
COc1cc2c3c(n(C)c(=O)c2cc1OC)-c1cc2c(cc1/C3=C\CCCCCBr)OCO2	34.8 µM (inactive)	20.6 µM (inactive)	9.53 µM (inactive)	–	–	14.5 µM (inactive)	6.5 µM (inactive)	4.31 µM (inactive)	–	–	–	0.0546 µM (active)	3.01 µM (inactive)	0.115 µM (active)	3.5 µM (inactive)	11.2 µM (inactive)	–	> 100 µM (inactive)	32.2 µM (inactive)	5.41 µM (inactive)
CCN(CC)CCNC(=O)c1ccc(C)c(OCc2ccccc2)c1[N+](=O)[O-]	19.9 µM (inactive)	61.2 µM (inactive)	> 100 µM (inactive)	33.7 µM (inactive)	44.8 µM (inactive)	50 µM (inactive)	> 80.7 µM (inactive)	63.2 µM (inactive)	23 µM (inactive)	> 90.2 µM (inactive)	–	62.8 µM (inactive)	22.5 µM (inactive)	19.4 µM (inactive)	22.3 µM (inactive)	19.1 µM (inactive)	28.6 µM (inactive)	28.6 µM (inactive)	21.2 µM (inactive)	25.8 µM (inactive)
OCC1C2CCC3(OCCO3)C12 (stereo not drawn)	> 100 µM (inactive)	> 100 µM (inactive)	> 100 µM (inactive)	> 100 µM (inactive)	> 100 µM (inactive)	–	> 100 µM (inactive)	> 100 µM (inactive)	> 100 µM (inactive)	> 100 µM (inactive)	> 100 µM (inactive)	> 100 µM (inactive)	> 100 µM (inactive)	> 100 µM (inactive)	> 100 µM (inactive)	> 100 µM (inactive)	> 100 µM (inactive)	–	> 100 µM (inactive)	> 100 µM (inactive)
O=C1CSc2nc3ccccc3n2/C=N\N1	> 100 µM (inactive)	> 100 µM (inactive)	> 100 µM (inactive)	–	> 100 µM (inactive)	> 100 µM (inactive)	> 100 µM (inactive)	> 100 µM (inactive)	> 100 µM (inactive)	> 100 µM (inactive)	> 100 µM (inactive)	–	> 100 µM (inactive)	> 100 µM (inactive)	> 100 µM (inactive)	> 100 µM (inactive)	–	–	> 100 µM (inactive)	> 100 µM (inactive)
OCCN(C1=NCCN1)/[N+](=C/c1ccc(Cl)cc1)[CH-]c1ccc(Cl)cc1	> 100 µM (inactive)	> 100 µM (inactive)	> 100 µM (inactive)	> 100 µM (inactive)	> 100 µM (inactive)	–	> 100 µM (inactive)	> 100 µM (inactive)	95.5 µM (inactive)	–	> 100 µM (inactive)	> 100 µM (inactive)	51.6 µM (inactive)	> 100 µM (inactive)	> 100 µM (inactive)	94.8 µM (inactive)	> 100 µM (inactive)	> 100 µM (inactive)	27.1 µM (inactive)	–
O=[N+]([O-])C(C(Cl)=C(Cl)Cl)=C(n1cncn1)n1cncn1	–	25.7 µM (inactive)	19.2 µM (inactive)	19 µM (inactive)	> 100 µM (inactive)	> 100 µM (inactive)	> 100 µM (inactive)	17.1 µM (inactive)	16.1 µM (inactive)	16.5 µM (inactive)	30.8 µM (inactive)	16.6 µM (inactive)	17.7 µM (inactive)	32.6 µM (inactive)	25.6 µM (inactive)	19 µM (inactive)	> 75.2 µM (inactive)	27 µM (inactive)	> 100 µM (inactive)	17.1 µM (inactive)
CCOC(=O)NNC(=O)C1CSC(c2ccccc2)N1C(C)=O (stereo not drawn)	–	> 100 µM (inactive)	> 100 µM (inactive)	> 100 µM (inactive)	> 100 µM (inactive)	> 100 µM (inactive)	> 100 µM (inactive)	> 100 µM (inactive)	> 100 µM (inactive)	> 100 µM (inactive)	> 100 µM (inactive)	> 100 µM (inactive)	> 100 µM (inactive)	–	> 100 µM (inactive)	> 100 µM (inactive)	> 100 µM (inactive)	> 100 µM (inactive)	> 100 µM (inactive)	> 100 µM (inactive)
CCCCCCCCCCCCC(=O)OC(c1cnco1)c1nc(C(O)CC(O)C(O)C(C)O)co1 (stereo not drawn)	1.95 µM (inactive)	5.62 µM (inactive)	0.299 µM (active)	0.942 µM (active)	9.18 µM (inactive)	20.9 µM (inactive)	11.3 µM (inactive)	0.333 µM (active)	0.157 µM (active)	> 10 µM (inactive)	–	0.339 µM (active)	0.144 µM (active)	0.5 µM (active)	0.454 µM (active)	0.351 µM (active)	2.65 µM (inactive)	1.53 µM (inactive)	0.63 µM (active)	0.273 µM (active)
COc1ccc(OC)c([N+](=O)[O-])c1-c1nc2sc(C)cn2c1/C=N/N=C(N)N	–	20.6 µM (inactive)	25.7 µM (inactive)	38.4 µM (inactive)	36.1 µM (inactive)	34.7 µM (inactive)	–	27.6 µM (inactive)	39.5 µM (inactive)	30.3 µM (inactive)	20.1 µM (inactive)	14.5 µM (inactive)	70.1 µM (inactive)	21.4 µM (inactive)	15.1 µM (inactive)	25.8 µM (inactive)	43.5 µM (inactive)	31 µM (inactive)	21.5 µM (inactive)	37.8 µM (inactive)
CC[C@]1(Cc2ccc(OC)c(OC)c2)C=[N+]([O-])O[C@H](OC2CCCCC2c2ccccc2)[C@@H]1OC(C)=O (stereo partly drawn)	53.5 µM (inactive)	> 100 µM (inactive)	50.6 µM (inactive)	–	32.5 µM (inactive)	> 100 µM (inactive)	92.5 µM (inactive)	–	34.1 µM (inactive)	49 µM (inactive)	50.6 µM (inactive)	39.4 µM (inactive)	40.9 µM (inactive)	61.7 µM (inactive)	28.8 µM (inactive)	45.1 µM (inactive)	64.6 µM (inactive)	–	46.1 µM (inactive)	21.1 µM (inactive)
